Laboratory results taken from patent publication US6426229B1, “Chelating agent and detergent comprising the same” (Mitsubishi Rayon Co., Ltd., priority 1995, dated 2002).
One block for each compound: values may come before it.

Assay: Storage of aqueous solution or slurry for 60 days: HPLC analysis of components and appearance
Format: physicochemical

Structure (SMILES): O=C([O-])CN[C@@H](CC(=O)[O-])C(=O)[O-].[Na+].[Na+].[Na+] [Example 97, trisodium salt of (S)-aspartic acid-N-monoacetic acid]
- Appearance after kept for 60 days (keeping temperature 70° C.): White slurry
- Content of the compound of the formula [I] in aqueous solution after kept for 60 days (keeping temperature 70° C.): 76.8 wt. %

- Appearance after kept for 60 days (keeping temperature 75° C.): Colorless transparent aqueous solution
- Content of the compound of the formula [I] in aqueous solution after kept for 60 days (keeping temperature 75° C.): 44.7 wt. %
Structure (SMILES): O=C([O-])C[C@H](NCC(O)CN[C@@H](CC(=O)[O-])C(=O)[O-])C(=O)[O-].[Na+].[Na+].[Na+].[Na+] [Example 116, tetrasodium (S,S)-2-hydroxy-1,3-propanediamine-N,N′-disuccinate]

- Appearance after kept for 60 days (keeping temperature 70° C.): White slurry
- Content of the compound of the formula [I] in aqueous solution after kept for 60 days (keeping temperature 70° C.): 78.4 wt. %
Structure (SMILES): O=C([O-])C[C@H](NCCCN[C@@H](CC(=O)[O-])C(=O)[O-])C(=O)[O-].[Na+].[Na+].[Na+].[Na+] [Example 120, tetrasodium (S,S)-1,3-propanediamine-N,N′-disuccinate]

Structure (SMILES): O=C([O-])CN[C@@H](CC(=O)[O-])C(=O)[O-].[Na+].[Na+].[Na+] [compound 34, trisodium salt of (S)-aspartic acid-N-monoacetic acid, reference compound]
- Appearance after kept for 60 days (keeping temperature 75° C.): Brown aquequs solution
- Content of the compound of the formula [I] in aqueous solution after kept for 60 days (keeping temperature 75° C.): 30.6 wt. %

- Appearance after kept for 60 days (keeping temperature 65° C.): Light yellow slurry
- Content of the compound of the formula [I] in aqueous solution after kept for 60 days (keeping temperature 65° C.): 64.5 wt. %
Structure (SMILES): O=C([O-])C[C@@H](C(=O)[O-])N(CC(=O)[O-])CC(=O)[O-].[Na+].[Na+].[Na+].[Na+] [Example 94, tetrasodium salt of (S)-aspartic acid-N,N-diacetic acid]

- Appearance after kept for 60 days (keeping temperature 75° C.): Colorless transparent aqueous solution
- Content of the compound of the formula [I] in aqueous solution after kept for 60 days (keeping temperature 75° C.): 40.7 wt. %
Structure (SMILES): O=C([O-])C[C@H](NCCCN[C@@H](CC(=O)[O-])C(=O)[O-])C(=O)[O-].[Na+].[Na+].[Na+].[Na+] [compound 46, tetrasodium (S,S)-1,3-propanediamine-N,N′-disuccinate, reference compound]

Structure (SMILES): O=C([O-])C[C@H](NCCN[C@@H](CC(=O)[O-])C(=O)[O-])C(=O)[O-].[Na+].[Na+].[Na+].[Na+] [Example 118, tetrasodium (S,S)-ethylenediamine-N,N′-disuccinate]
- Appearance after kept for 60 days (keeping temperature 65° C.): Light yellow slurry
- Content of the compound of the formula [I] in aqueous solution after kept for 60 days (keeping temperature 65° C.): 65.4 wt. %

- Appearance after kept for 60 days (keeping temperature 75° C.): Colorless transparent aqueous solution
- Content of the compound of the formula [I] in aqueous solution after kept for 60 days (keeping temperature 75° C.): 49.4 wt. %
Structure (SMILES): O=C([O-])CN(CCS(=O)(=O)[O-])CC(=O)[O-].[Na+].[Na+].[Na+] [Example 103, trisodium salt of taurine-N,N-diacetic acid]

Structure (SMILES): O=C([O-])CN[C@@H](CC(=O)[O-])C(=O)[O-].[Na+].[Na+].[Na+] [compound 35, trisodium salt of (S)-aspartic acid-N-monoacetic acid, reference compound]
- Appearance after kept for 60 days (keeping temperature 60° C.): Brown slurry
- Content of the compound of the formula [I] in aqueous solution after kept for 60 days (keeping temperature 60° C.): 47.3 wt. %

- Appearance after kept for 60 days (keeping temperature 70° C.): White slurry
- Content of the compound of the formula [I] in aqueous solution after kept for 60 days (keeping temperature 70° C.): 76.9 wt. %
Structure (SMILES): O=C([O-])CN(CCS(=O)(=O)[O-])CC(=O)[O-].[Na+].[Na+].[Na+] [Example 108, trisodium salt of taurine-N,N-diacetic acid]

Structure (SMILES): O=C([O-])CN(CC(=O)[O-])c1ccccc1C(=O)[O-].[Fe+3] [Example 111, iron salt of anthranilic acid-N,N-diacetic acid]
- Appearance after kept for 60 days (keeping temperature 40° C.): Reddish brown aqueous solution
- Content of the compound of the formula [I] in aqueous solution after kept for 60 days (keeping temperature 40° C.): 39.8 wt. %

- Appearance after kept for 60 days (keeping temperature 70° C.): White slurry
- Content of the compound of the formula [I] in aqueous solution after kept for 60 days (keeping temperature 70° C.): 78.7 wt. %
Structure (SMILES): O=C([O-])C[C@H](NCC(O)CN[C@@H](CC(=O)[O-])C(=O)[O-])C(=O)[O-].[Na+].[Na+].[Na+].[Na+] [Example 121, tetrasodium (S,S)-2-hydroxy-1,3-propanediamine-N,N′-disuccinate]

- Appearance after kept for 60 days (keeping temperature 65° C.): Light yellow slurry
- Content of the compound of the formula [I] in aqueous solution after kept for 60 days (keeping temperature 65° C.): 64.5 wt. %
Structure (SMILES): CN(CC(=O)[O-])CC(=O)[O-].[Na+].[Na+] [Example 107, disodium N-methyliminodiacetate]

Structure (SMILES): O=C([O-])CN(CC(=O)[O-])c1ccccc1C(=O)[O-].[Fe+3] [compound 42, iron salt of anthranilic acid-N,N-diacetic acid, reference compound]
- Appearance after kept for 60 days (keeping temperature 40° C.): Blackish brown aqueous solution
- Content of the compound of the formula [I] in aqueous solution after kept for 60 days (keeping temperature 40° C.): 40.6 wt. %

Structure (SMILES): O=C([O-])CC(NCCCNC(CC(=O)[O-])C(=O)[O-])C(=O)[O-].[Na+].[Na+].[Na+].[Na+] (centres unmarked) [Example 123, tetrasodium 1,3-propanediamine-N,N′-disuccinate]
- Appearance after kept for 60 days (keeping temperature 40° C.): White slurry
- Content of the compound of the formula [I] in aqueous solution after kept for 60 days (keeping temperature 40° C.): 74.1 wt. %

- Appearance after kept for 60 days (keeping temperature 60° C.): Brown slurry
- Content of the compound of the formula [I] in aqueous solution after kept for 60 days (keeping temperature 60° C.): 48.3 wt. %
Structure (SMILES): O=C([O-])C[C@@H](C(=O)[O-])N(CC(=O)[O-])CC(=O)[O-].[Na+].[Na+].[Na+].[Na+] [compound 36, tetrasodium salt of (S)-aspartic acid-N,N-diacetic acid, reference compound]

Structure (SMILES): O=C([O-])CN(CC(=O)[O-])c1ccccc1C(=O)[O-].[Fe+3] [Example 110, iron salt of anthranilic acid-N,N-diacetic acid]
- Appearance after kept for 60 days (keeping temperature 40° C.): Reddish brown aqueous solution
- Content of the compound of the formula [I] in aqueous solution after kept for 60 days (keeping temperature 40° C.): 49.3 wt. %

- Appearance after kept for 60 days (keeping temperature 65° C.): Light yellow slurry
- Content of the compound of the formula [I] in aqueous solution after kept for 60 days (keeping temperature 65° C.): 63.7 wt. %
Structure (SMILES): O=C([O-])CN(CCS(=O)(=O)[O-])CC(=O)[O-].[Na+].[Na+].[Na+] [Example 106, trisodium salt of taurine-N,N-diacetic acid]

Structure (SMILES): O=C([O-])CN[C@@H](CC(=O)[O-])C(=O)[O-].[Na+].[Na+].[Na+] [Example 89, trisodium salt of (S)-aspartic acid-N-monoacetic acid]
- Appearance after kept for 60 days (keeping temperature 75° C.): Colorless transparent aqueous solution
- Content of the compound of the formula [I] in aqueous solution after kept for 60 days (keeping temperature 75° C.): 49.4 wt. %

Structure (SMILES): O=C([O-])CC(NCCCNC(CC(=O)[O-])C(=O)[O-])C(=O)[O-].[Na+].[Na+].[Ni+2] [compound 51, nickel disodium (S,S)-1,3-propanediamine-N,N′-disuccinate, reference compound]
- Appearance after kept for 60 days (keeping temperature 75° C.): Blue transparent aqueous solution
- Content of the compound of the formula [I] in aqueous solution after kept for 60 days (keeping temperature 75° C.): 38.4 wt. %

Structure (SMILES): O=C([O-])CN(CC(=O)[O-])c1ccccc1C(=O)[O-].[Na+].[Na+].[Na+] [Example 105, trisodium salt of anthranilic acid-N,N-diacetic acid]
- Appearance after kept for 60 days (keeping temperature 75° C.): Colorless transparent aqueous solution
- Content of the compound of the formula [I] in aqueous solution after kept for 60 days (keeping temperature 75° C.): 49.8 wt. %

Structure (SMILES): O=C([O-])CCN[C@@H](CC(=O)[O-])C(=O)[O-].[Na+].[Na+].[Na+] [Example 99, trisodium salt of (S)-aspartic acid-N-monopropionic acid]
- Appearance after kept for 60 days (keeping temperature 70° C.): White slurry
- Content of the compound of the formula [I] in aqueous solution after kept for 60 days (keeping temperature 70° C.): 79.4 wt. %
